Measurements from patent US20040087653A1, “Methods for the treatment of respiratory diseases and conditions with a selective iNOS inhibitor and a PDE inhibitor and compositions therefor” (priority 2002, published 2004).
Counter-ions that a name gives are not always drawn.

Columns and labels:
[1] = target: T1, human endothelial constitutive NOS (hecNOS) (Homo sapiens, UniProt P29474); assay: Citrulline assay for nitric oxide synthase, hecNOS; assay type: biochemical; conditions: averages across all experiments and all lots; 30 μM L-arginine
T1 construct: made in house; host or cells: Sf9 insect cells, baculovirus vector
Text: Nitric oxide synthase (NOS) activity can be measured by monitoring the conversion of L-[2,3-^3H]-arginine to L-[2,3-^3H]-citrulline (Bredt and Snyder, Proc. Natl. Acad. Sci. U.S.A., 87, 682-685, 1990 and Moore et al, J. Med. Chem., 39, 669-672, 1996). Human inducible NOS (hiNOS), human endothelial constitutive_NOS (hecNOS) and human neuronal constitutive NOS (hncNOS) are each cloned from RNA extracted from human tissue. The cDNA for human inducible NOS (hiNOS) is isolated from a λcDNA library made from RNA extracted from a colon sample from a patient with ulcerative colitis. The cDNA for human endothelial constitutive NOS (hecNOS) is isolated from a λcDNA library made from RNA extracted from human umbilical vein endothelial cells (HUVEC) and the cDNA for human neuronal constitutive NOS (hncNOS) is isolated from a λcDNA library made from RNA extracted from human cerebellum obtained from a cadaver. The recombinant enzymes are expressed in Sf9 insect cells using a baculovirus vector (Rodi et al, in The Biology of Nitric Oxide, Pt. 4: Enzymology, Biochemistry and Immunology; Moncada, S., Feelisch, M., Busse, R., Higgs, E., Eds.; Portland Press Ltd.: London, 1995; pp 447-450). […] After mixing the resin is allowed to settle and L-[2,3-^3H]-Citrulline formation is determined by counting aliquots of the supernatant with a liquid scintillation counter. […]

i-NOS = i-NOS (Homo sapiens, UniProt P35228); assay: i-NOS inhibition, comparison with NIL amides
[2] = Clinical study: tolerability, FEV1, blood pressure, heart rate, laboratory parameters; assay type: in vivo, human; conditions: single oral dose
Procedure: (§1) A single center study was performed at the National Heart and Lung Institute (NHLI) Clinical Studies Unit in London, UK. The clinical protocol was submitted and accepted by the Ethics Committee of the Royal Brompton Hospital Trust, and the study was carried out according to Good Clinical Practice standards. Each subject provided written informed consent.
(§2) Twenty-four, adult, healthy volunteers and 24 patients with mild asthma participated in this study. All subjects were lifelong non-smokers. Asthma patients (n=24) had mild asthma according to American Thoracic Society Criteria, with medication on an as required basis with inhaled albuterol only. […] All asthmatic patients had baseline exhaled breath NO levels of >15 parts per billion (ppb). Healthy control (n=24) subjects were matched for age and sex, and had no clinically significant disease. Healthy subjects were required to have baseline exhaled NO levels between 4 and 9 ppb.
(§3) The study included 2 panels of healthy volunteers and asthmatic patients who received in a double-blind, randomized manner, a single dose of oral compound NN or placebo. The study was carried out in two phases according to the dose of compound NN under investigation. The first panel consisted of patients with mild-to-moderate asthma (n=12) and healthy subjects (n=12) who received single doses of 20 mg of compound NN and placebo, while the second panel of mild-to-moderate asthmatics (n=12) and healthy subjects (n=12) received single doses of 200 mg of compound NN and placebo. No patient or subject participated in both panels of this study. Evaluation of the first panel was completed before moving on to the second panel. The study evaluated the tolerability and pharmacokinetics of orally-administered compound NN and monitored levels of exhaled breath NO.
Forced expiratory volume in 1 sec (FEV1) and heart rate data had no significant deviations from normality using the Shapiro-Wilks test, therefore parametric statistical methods were used, and the significance of the change from baseline was tested using a paired […]. […]

[3] = system: exhaled breath nitric oxide (NO); assay: Clinical study: exhaled breath NO after single oral dose; assay type: in vivo, human
Procedure: as §1, §2, §3
Measurement of exhaled NO: Exhaled NO was measured using a chemoluminescence analyzer (Logan 2000, Rochester, UK) and methods in accordance with International Guidelines. The analyser was calibrated daily using a certified NO mixture of 50 to 200 ppb (BOC Special gases, Guildford, UK) and ambient air NO recordings made on an hourly basis. Subjects were asked to refrain from strenuous exercise before any measurement. Each subject was seated for at least 5 minutes before any measurement was taken and remained seated throughout the procedure. […] Two successive recordings were taken, and the average value was calculated.
Statistical methods for clinical data: Exhaled NO data, including change from baseline and the percentage change, were tested for normality using the Shapiro-Wilks test. […] The area under the curve (AUC) for the change from baseline and the percentage change, and the differences between active and placebo were calculated. […]

[4] = healthy volunteers and asthmatics

Chain of i-NOS (P35228 whole entry): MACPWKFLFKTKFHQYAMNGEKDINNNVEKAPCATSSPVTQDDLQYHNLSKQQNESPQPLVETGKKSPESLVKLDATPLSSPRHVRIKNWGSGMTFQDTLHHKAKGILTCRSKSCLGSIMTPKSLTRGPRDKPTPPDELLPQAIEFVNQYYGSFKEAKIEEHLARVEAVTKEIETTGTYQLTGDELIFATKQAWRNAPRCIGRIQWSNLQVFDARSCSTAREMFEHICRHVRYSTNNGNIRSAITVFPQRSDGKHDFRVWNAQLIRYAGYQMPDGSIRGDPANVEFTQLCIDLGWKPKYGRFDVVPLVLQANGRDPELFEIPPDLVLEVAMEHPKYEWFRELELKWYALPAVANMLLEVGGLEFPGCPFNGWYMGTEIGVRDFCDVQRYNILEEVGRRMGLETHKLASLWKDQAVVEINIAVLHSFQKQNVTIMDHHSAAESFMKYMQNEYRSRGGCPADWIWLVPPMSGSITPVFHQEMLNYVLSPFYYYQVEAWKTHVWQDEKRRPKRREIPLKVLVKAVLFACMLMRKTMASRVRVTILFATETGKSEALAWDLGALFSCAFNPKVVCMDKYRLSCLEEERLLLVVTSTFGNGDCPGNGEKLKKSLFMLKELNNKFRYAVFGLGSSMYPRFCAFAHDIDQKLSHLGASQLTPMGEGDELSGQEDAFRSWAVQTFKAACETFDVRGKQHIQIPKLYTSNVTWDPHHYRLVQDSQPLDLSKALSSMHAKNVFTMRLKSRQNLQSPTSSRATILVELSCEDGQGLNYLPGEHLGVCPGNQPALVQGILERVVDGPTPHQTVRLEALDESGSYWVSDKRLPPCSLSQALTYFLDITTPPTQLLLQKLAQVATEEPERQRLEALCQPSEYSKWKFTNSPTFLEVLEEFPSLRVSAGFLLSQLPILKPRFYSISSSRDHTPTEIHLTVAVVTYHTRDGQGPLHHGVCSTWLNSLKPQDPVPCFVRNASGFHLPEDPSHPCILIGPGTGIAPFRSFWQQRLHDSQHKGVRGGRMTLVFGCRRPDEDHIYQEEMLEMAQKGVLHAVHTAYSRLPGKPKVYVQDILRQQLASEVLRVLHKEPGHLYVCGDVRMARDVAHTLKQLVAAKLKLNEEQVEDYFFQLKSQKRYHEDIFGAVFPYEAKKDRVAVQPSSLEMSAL

With CC(=N)NCCCC[C@H](N)C(=O)Nc1nnn[nH]1 [Example NN, 2S-amino-6-[(1-iminoethyl)amino]-N-(1H-tetrazol-5-yl)hexanamide, hydrate, dihydrochloride] the IC50 [1] was 2.42 mM, the “i-NOS inhibitory potency compared with NIL amide or NIL dimethylamide” value (i-NOS) was “more potent i-NOS inhibitor” and the “effect on haematology or blood biochemistry” value [2] was “no effect”. The “effects on heart rate, blood pressure and FEV1” value [2] was “no apparent effects”, the tolerability [2, 4] was “well tolerated” and the “inhibition of exhaled NO in asthma” value ([3]; 200 mg single oral dose) was 95%. For the same compound, the “residual exhaled NO” value [3, 4] was under 1 ppb, the “change in exhaled NO” value ([3]; single oral dose 20 mg or 200 mg, healthy volunteers and asthmatics, 72 hour assessment) was “rapid reduction in exhaled NO” and the “duration of the decrease in exhaled breath NO” value ([3]; single oral dose, healthy volunteers and asthmatics) was 3 days.
